According to patent US9650405B2, “Modified sophorolipids as oil solubilizing agents” (Polytechnic Institute of New York University, priority 2010, dated 2017):
“And” between values parts separate entries of the source, which are not always exact repeats. Equal values may be shown once.

How the values were obtained:
[1] = Solubility of MSLs in water
Description: If the material precipitates upon cooling or was to some extent insoluble, the insoluble material was separated by filtration, dried and weighed.

[2] = Emulsion type: dilution test and oil soluble dye staining; type: physicochemical; details: 2%-by-weight relative to water phase, oil/water 5/5 and 7/3
Method: In this test the emulsion is diluted either with oil (O) or water (W). If the emulsion is O/W type and it is diluted with water, it will remain stable as water is the dispersion medium. However, if the emulsion is O/W type and it is diluted with oil, the emulsion will break as oil and water are not miscible with each other. […] Emulsions of the O/W type have separated layers after dilution with pure oil but form a homogenous phase when diluted by water. Unless otherwise specified, the emulsion type formed by MSLs were oil in water.
In FIG. 13B, the tube on the left was diluted with 1 mL of oil whereas the tube on right was diluted with water. Visual observation of the tubes in FIG. 13B supports that the emulsions formed are indeed O/W emulsions.
Oil Red O was applied as an oil soluble dye and emerald green as water soluble dye in the process of emulsion preparation. Observations of emulsions were made before and after staining under optical microscope at 400× magnification (FIG. 14). […] The formation of O/W emulsions and not W/O emulsions with this set of MSL compounds would not be obvious to one skilled in the art. We believe that O/W emulsions are formed by this set of MSLs due to that large sophorose polar head groups requires relatively more space than the lipid tails and, therefore self-assemble into spherical type structures where disaccharide groups are locating outside the droplets.

[3] = Emulsion stability based on phase separation; type: physicochemical; details: for emulsion layer volume-%, one month / emulsion layer volume-%, start: oil/water 5/5, 2%-by-weight; for emulsion layer volume-%, one month: one month at room temperature; for emulsion layer volume-%, start / emulsion layer, start: start of aging; for emulsion phase, one month / emulsion layer, start: oil/water 7/3, 2%-by-weight; for emulsion phase, one month: one month aging; for emulsion layer percentage: paraffin oil/water 5/5, 2%-by-weight emulsifier, after 24 hours at 25° C.
Method: The emulsion was obtained by homogenizing the oil and water mixture and was allowed to settle at room temperature for 24 hours. […] Then, this mixture was homogenized at 13,000 rpm for 2 minutes. Thereafter, the resulting emulsion was left unagitated at 25° C. for 24 hours. Surfactants which give a larger emulsion phase are denoted as having higher emulsion effectiveness (Process Safety and Environment protection, 2005, 83, 38-46). […] Thus, unexpectedly, that longer alkyl chains, at least up to butyl and hexyl, provided improved interfacial stability at the paraffin oil/water interface. […] Apparently, ester bonds of SL-esters are less disruptive to organization at the oil water interface than amide bonds of SL-amides. […] The acidic SL (3) gave an 8% emulsion layer, much lower than the MSL examples given herein. Similarly, the natural SL (1) mixture gave a 10% emulsion layer. This performance is also far below that of SL-butyl amide (24), hexyl amide (25), butyl ester (8) and hexyl ester (16).
After homogenized at 13,000 rpm for 2 minutes, the emulsions were kept at room temperature and separation of the respective oil, emulsion and water layers was recorded for up to 1 month.

[4] = Emulsion droplet size distribution, Coulter LS 230 analyzer; type: physicochemical; details: paraffin oil-to-water 7:3 v/v, 25° C.
Method: Emulsified oil droplet size (average and standard deviation) was measured after suitable dilution of the emulsion phase using a Coulter LS 230 analyzer. […] Relative to natural and lactonic SL, selected MSLs show improved properties as emulsifiers on paraffin oil.
After being aged for 3-months, emulsified oil droplet size (average and standard deviation) was measured after suitable dilution of the emulsion phase using a Coulter LS 230 analyzer and the results are listed in Table 5. […] However, increasing the surfactant concentration from 1 to 2% did result in substantially smaller emulsion-phase droplet sizes. […] This is evidence that MSL's can stabilize oil phases greatly decreasing their tendency to undergo coalescence. […] It follows that the results of 3-month aging studies support the utility of selected MSLs for formation and stabilization of oil-in-water emulsions of paraffin oil phases. One skilled in the art would expect that the ability of these MSLs to stabilize paraffin oil phases teaches that they would also stabilize oil phases of similar structure.

[5] = Emulsion viscosity measurement; type: physicochemical
Method: Viscosity was measured at 25° C. with increasing shear rate from 1 S^−1 to 750 S^−1. The viscosity change was monitored for aging times up to 3 months. For all samples, the paraffin oil/water ratio is 7/3 and the surfactant concentrations studied were 0.5%, 1% to 2%-by-weight relative to the oil phase. FIG. 19 presents the viscosity change with shear rate for different aging times. […] The emulsion tested was prepared using 2%-by-weight SL-butyl ester relative to paraffin oil. Viscosity decreases with increased shear rate implying the emulsion follows shear shinning. Furthermore, viscosity decreased with increased storage time. […] This change is consistent with the small increase in oil phase particle size (1.7 to 2.1 μm) with aging from 1 day to 3-months (Tables 4 and 5).
Values of ηlow decreased with storage time to various extents that are dependent on the MSL compound used to stabilize the emulsion. […] The relative ability of different MSL structures to stabilize emulsions and thereby decrease the extent of decrease in viscosity as a function of aging time would not be predictable by one skilled in the art. The behavior as a function of MSL structure is related to emulsion dispersed phase droplet size. That is, the smaller the change in droplet size, the less decrease in emulsion viscosity occurs with increased aging time. Smaller changes in droplet size reflects the ability of the emulsifier to better stabilize particles. For example, the viscosity of the emulsion stabilized by SL-butyl amide decreased by 65% (from 344 Pas to 120 Pas) whereas the viscosity of the emulsion stabilized by SL-hexyl ester decreased by 20% (from 457 Pas to […]).
The viscosity was measured 24 hours after emulsion preparation. The viscosity increased with increasing surfactant concentration. Such behavior could not have been predicted by one skilled in the art without the teaching provided in this disclosure. The extent of viscosity change with surfactant concentration is related to the interfacial free energy at the droplet surface that reduces with the increase of surfactant concentration.

[6] = SL-esters; from earlier publication in Colloids and surfaces, 2004, 240, 75; cited from earlier work
[7] = MSL combination lemon oil emulsions, high shear homogenizer; type: physicochemical; details: 5 weight % surfactant, 1 weight % lemon oil, one week at 25° C.
Method: In addition to testing single MSL emulsification through tracking nanoemulsion stability, MSL combinations were investigated. These emulsions were processed with a high shear homogenizer at 13,500 rpm. One example of this MSL combination formulation included 5 weight % surfactant, 1 weight % lemon oil, and 94% deionized water. The pure form of this formulation included 5 weight % SL-hexyl ester. The combination form of this formulation included 2.5 weight % SL-hexyl ester and 2.5 weight % SL-ethyl ester. […] The size of droplets within this emulsion was 2.5 μm. […] The size of droplets within the combination emulsion was 8.4 nm.

[8] = oil/water 7/3, 2%-by-weight relative to paraffin oil, 25° C.
[9] = oil/water 7/3, 1% MSL, shear rate 1 S^−1

Row | Solubility [1] [µg/mL] | emulsion type by Oil Red O staining [2] | emulsion layer volume-%, one month [3] [%] | emulsion layer volume-%, start [3] [%] | emulsion phase, one month [3] [%] | emulsion layer, start [3] [%] | emulsion layer percentage [3] [%] | Average droplet size ([4]; 0.5 weight %, 24 hours) [μm] | Average droplet size ([4]; 0.5 weight %, aged 3-months) [μm] | Average droplet size ([4]; 1 weight %, 24 hours) [μm] | Average droplet size ([4]; 1 weight %, aged 3-months) [μm] | Average droplet size ([4]; 2 weight %, 24 hours) | Average droplet size ([4]; 2 weight %, aged 3-months) | Structure (SMILES) | CMC Range [6] | MST (minimum surface tension) [6] [mN/m] | further results
1 | <3000 | O/W | 50 | 65 | 90 | 95 | 55 | 2.5 ± 0.3 | 3.5 ± 0.4 | 2.4 ± 0.3 | 3.1 ± 0.5 | 1.7 μm and 1.7 ± 0.1 μm | 2.1 μm and 2.1 ± 0.4 μm | CCCCOC(=O)CCCCCCCC=CCCCCCCC(C)OC1OC(CO)C(O)C(O)C1OC1OC(CO)C(O)C(O)C1O (centres unmarked) [Compound 8, SL-Butyl Ester] | 7-9 10^−6M | 34.5 | emulsion viscosity at shear rate 1S^−1, after 3 months [5, 8]: 376 Pas; emulsion viscosity at shear rate 1S^−1, before aging [5, 8]: 465 Pas; viscosity decrease after 3 months ([5]; oil/water 7/3, 2%-by-weight, shear rate 1S^−1): 19.1%
2 | <5000 | O/W | 65 | 70 | 85 | 95 | 65 | 2.3 ± 0.4 | 2.9 ± 0.2 | 2.1 ± 0.3 | 2.5 ± 0.1 | 1.7 ± 0.2 μm | 1.9 ± 0.1 μm | CCCCCCOC(=O)CCCCCCCC=CCCCCCCC(C)OC1OC(CO)C(O)C(O)C1OC1OC(CO)C(O)C(O)C1O (centres unmarked) [Compound 16, SL-Hexyl Ester] | 3-4 10^−6M | 34.0 | low shear emulsion viscosity, after aging period [5, 9]: 459 Pas; low shear emulsion viscosity, before aging [5, 9]: 457 Pas; viscosity decrease over the aging period [5, 9]: 20%; size of droplets within the emulsion ([7]; 94% deionized water): 2.5 μm; appearance of the emulsion [7]: completely opaque
